The kinase profiling compilation of Christmann-Franck et al. (2016)

The compounds below were run against PRKCE (human) (UniProt Q02156) (assay: radiometric filter-binding kinase assay, Kinase HotSpot). Conditions: compound 0.5 µM; ATP 10 µM.
PRKCE (human), sequence (Q02156 whole entry, looked up): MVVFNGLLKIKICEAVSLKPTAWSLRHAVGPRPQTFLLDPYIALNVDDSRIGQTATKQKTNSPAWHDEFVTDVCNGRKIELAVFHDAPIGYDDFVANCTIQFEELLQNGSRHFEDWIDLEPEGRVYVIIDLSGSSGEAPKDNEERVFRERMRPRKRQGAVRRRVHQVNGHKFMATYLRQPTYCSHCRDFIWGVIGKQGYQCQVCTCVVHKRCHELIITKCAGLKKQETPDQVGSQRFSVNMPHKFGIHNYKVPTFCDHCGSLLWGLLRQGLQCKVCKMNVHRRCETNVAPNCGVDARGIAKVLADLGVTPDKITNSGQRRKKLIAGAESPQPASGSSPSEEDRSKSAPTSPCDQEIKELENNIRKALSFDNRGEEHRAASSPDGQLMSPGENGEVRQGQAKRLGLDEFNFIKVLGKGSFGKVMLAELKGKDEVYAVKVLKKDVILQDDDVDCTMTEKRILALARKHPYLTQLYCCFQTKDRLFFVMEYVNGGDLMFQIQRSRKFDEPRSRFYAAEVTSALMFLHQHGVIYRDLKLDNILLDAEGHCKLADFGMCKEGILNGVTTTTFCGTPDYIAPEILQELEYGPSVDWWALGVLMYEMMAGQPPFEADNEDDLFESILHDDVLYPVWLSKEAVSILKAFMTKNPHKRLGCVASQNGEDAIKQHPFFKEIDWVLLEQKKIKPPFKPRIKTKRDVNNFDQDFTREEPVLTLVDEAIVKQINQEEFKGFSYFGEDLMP

| SMILES | residual activity [%] |
| --- | --- |
| CCN1/C(=C/C(C)=O)Sc2ccc(OC)cc21 | 95.2 |
| COc1ccc(-c2cnc3c(-c4ccsc4)cnn3c2)cc1 | 103 |
| O=C1Nc2cc(Br)ccc2/C1=C1/Nc2ccccc2/C1=N\O | 92.4 |
| CS(=O)c1ccc(-c2nc(-c3ccc(F)cc3)c(-c3ccncc3)[nH]2)cc1 (stereo unspecified) | 115 |

Each compound was assayed against SRPK1 (human) (UniProt Q96SB4) in the same assay as above. Conditions: compound 0.5 µM; ATP 10 µM.

| SMILES | residual activity [%] |
| --- | --- |
| CCN1/C(=C/C(C)=O)Sc2ccc(OC)cc21 | 106 |
| COc1ccc(-c2cnc3c(-c4ccsc4)cnn3c2)cc1 | 101 |
| O=C1Nc2cc(Br)ccc2/C1=C1/Nc2ccccc2/C1=N\O | 94.9 |
| CS(=O)c1ccc(-c2nc(-c3ccc(F)cc3)c(-c3ccncc3)[nH]2)cc1 (stereo unspecified) | 99.5 |

These compounds were tested against ROCK2 (human) (UniProt O75116) in the same assay as above. Conditions: compound 0.5 µM; ATP 10 µM.
ROCK2 (human), sequence (O75116 whole entry, looked up): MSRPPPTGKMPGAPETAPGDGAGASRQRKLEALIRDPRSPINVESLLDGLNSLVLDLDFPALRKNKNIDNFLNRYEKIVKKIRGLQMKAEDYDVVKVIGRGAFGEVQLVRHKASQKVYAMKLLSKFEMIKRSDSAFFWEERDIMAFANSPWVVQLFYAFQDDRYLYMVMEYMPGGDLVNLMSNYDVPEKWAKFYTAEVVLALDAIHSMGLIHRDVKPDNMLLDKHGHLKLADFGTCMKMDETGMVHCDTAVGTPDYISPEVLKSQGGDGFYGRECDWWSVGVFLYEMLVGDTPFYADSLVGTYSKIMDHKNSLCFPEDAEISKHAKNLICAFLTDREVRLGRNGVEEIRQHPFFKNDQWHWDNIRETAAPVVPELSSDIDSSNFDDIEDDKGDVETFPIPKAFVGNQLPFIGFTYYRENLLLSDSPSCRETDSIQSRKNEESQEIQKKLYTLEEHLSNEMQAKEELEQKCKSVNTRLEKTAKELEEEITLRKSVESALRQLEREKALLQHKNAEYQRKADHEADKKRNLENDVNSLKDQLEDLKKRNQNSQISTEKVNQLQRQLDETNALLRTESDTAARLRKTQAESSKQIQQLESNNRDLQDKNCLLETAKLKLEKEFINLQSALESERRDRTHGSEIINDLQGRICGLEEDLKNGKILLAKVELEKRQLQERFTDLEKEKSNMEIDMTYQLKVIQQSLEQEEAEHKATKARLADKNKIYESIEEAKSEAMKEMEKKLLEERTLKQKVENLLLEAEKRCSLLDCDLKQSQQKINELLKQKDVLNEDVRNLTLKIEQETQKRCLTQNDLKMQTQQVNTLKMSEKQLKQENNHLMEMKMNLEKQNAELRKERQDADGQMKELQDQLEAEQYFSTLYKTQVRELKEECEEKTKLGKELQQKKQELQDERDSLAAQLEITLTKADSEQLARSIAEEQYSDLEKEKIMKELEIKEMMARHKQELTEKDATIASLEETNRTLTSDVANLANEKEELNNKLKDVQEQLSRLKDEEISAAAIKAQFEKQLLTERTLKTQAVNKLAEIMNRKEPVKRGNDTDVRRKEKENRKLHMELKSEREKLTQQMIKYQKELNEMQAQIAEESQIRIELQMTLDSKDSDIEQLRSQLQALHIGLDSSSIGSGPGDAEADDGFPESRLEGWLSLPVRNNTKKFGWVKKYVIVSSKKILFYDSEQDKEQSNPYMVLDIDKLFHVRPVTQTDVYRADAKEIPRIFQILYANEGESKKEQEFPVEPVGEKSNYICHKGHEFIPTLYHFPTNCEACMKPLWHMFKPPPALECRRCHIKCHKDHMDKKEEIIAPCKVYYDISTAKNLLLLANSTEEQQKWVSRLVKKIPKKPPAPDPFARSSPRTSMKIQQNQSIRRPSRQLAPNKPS

| SMILES | residual activity [%] |
| --- | --- |
| CCN1/C(=C/C(C)=O)Sc2ccc(OC)cc21 | 90.7 |
| COc1ccc(-c2cnc3c(-c4ccsc4)cnn3c2)cc1 | 90.4 |
| C#Cc1cccc(Nc2ncnc3cc(OCCOC)c(OCCOC)cc23)c1 | 91 |
| O=C1Nc2cc(Br)ccc2/C1=C1/Nc2ccccc2/C1=N\O | 92.1 |
| CS(=O)c1ccc(-c2nc(-c3ccc(F)cc3)c(-c3ccncc3)[nH]2)cc1 (stereo unspecified) | 98.4 |

These compounds were tested against AKT2 (human) (UniProt P31751) in the same assay as above. Conditions: compound 0.5 µM; ATP 10 µM.

| SMILES | residual activity [%] |
| --- | --- |
| CCN1/C(=C/C(C)=O)Sc2ccc(OC)cc21 | 95.2 |
| COc1ccc(-c2cnc3c(-c4ccsc4)cnn3c2)cc1 | 93.3 |
| C#Cc1cccc(Nc2ncnc3cc(OCCOC)c(OCCOC)cc23)c1 | 108 |
| O=C1Nc2cc(Br)ccc2/C1=C1/Nc2ccccc2/C1=N\O | 101 |
| CS(=O)c1ccc(-c2nc(-c3ccc(F)cc3)c(-c3ccncc3)[nH]2)cc1 (stereo unspecified) | 96.8 |

These compounds were tested against CSNK1G2 (human) (UniProt P78368) in the same assay as above. Conditions: compound 0.5 µM; ATP 10 µM.

| SMILES | residual activity [%] |
| --- | --- |
| COc1ccc(-c2cnc3c(-c4ccsc4)cnn3c2)cc1 | 82.3 |
| C#Cc1cccc(Nc2ncnc3cc(OCCOC)c(OCCOC)cc23)c1 | 98.3 |
| O=C1Nc2cc(Br)ccc2/C1=C1/Nc2ccccc2/C1=N\O | 105 |
| CS(=O)c1ccc(-c2nc(-c3ccc(F)cc3)c(-c3ccncc3)[nH]2)cc1 (stereo unspecified) | 95.7 |

The compounds below were run against ADRBK1 (human) (UniProt P25098) in the same assay as above. Conditions: compound 0.5 µM; ATP 10 µM.
ADRBK1 (human), sequence (P25098 whole entry, looked up): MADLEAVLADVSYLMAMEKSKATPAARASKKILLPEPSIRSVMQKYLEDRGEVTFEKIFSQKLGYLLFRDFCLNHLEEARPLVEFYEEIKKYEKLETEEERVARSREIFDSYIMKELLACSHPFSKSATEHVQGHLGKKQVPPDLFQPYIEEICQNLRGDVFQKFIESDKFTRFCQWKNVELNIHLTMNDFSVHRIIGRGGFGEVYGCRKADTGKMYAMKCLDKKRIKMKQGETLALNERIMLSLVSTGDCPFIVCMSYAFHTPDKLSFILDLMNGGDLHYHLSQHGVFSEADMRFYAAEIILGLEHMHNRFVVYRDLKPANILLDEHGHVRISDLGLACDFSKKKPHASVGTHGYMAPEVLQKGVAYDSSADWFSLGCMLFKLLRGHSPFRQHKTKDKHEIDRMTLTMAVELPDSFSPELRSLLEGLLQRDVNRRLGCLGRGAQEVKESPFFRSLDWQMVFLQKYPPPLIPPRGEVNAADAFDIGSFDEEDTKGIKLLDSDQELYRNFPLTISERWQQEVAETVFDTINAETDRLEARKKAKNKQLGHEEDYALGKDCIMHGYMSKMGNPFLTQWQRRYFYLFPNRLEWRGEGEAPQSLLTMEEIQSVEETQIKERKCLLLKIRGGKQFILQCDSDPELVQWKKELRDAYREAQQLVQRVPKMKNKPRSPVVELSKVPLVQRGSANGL

| SMILES | residual activity [%] |
| --- | --- |
| CCN1/C(=C/C(C)=O)Sc2ccc(OC)cc21 | 95.5 |
| COc1ccc(-c2cnc3c(-c4ccsc4)cnn3c2)cc1 | 100 |
| C#Cc1cccc(Nc2ncnc3cc(OCCOC)c(OCCOC)cc23)c1 | 92.9 |
| O=C1Nc2cc(Br)ccc2/C1=C1/Nc2ccccc2/C1=N\O | 97.3 |
| CS(=O)c1ccc(-c2nc(-c3ccc(F)cc3)c(-c3ccncc3)[nH]2)cc1 (stereo unspecified) | 101 |

What follows are compounds tested against MYLK2 (human) (UniProt Q9H1R3) in the same assay as above. Conditions: compound 0.5 µM; ATP 10 µM.
MYLK2 (human), sequence (Q9H1R3 whole entry, looked up): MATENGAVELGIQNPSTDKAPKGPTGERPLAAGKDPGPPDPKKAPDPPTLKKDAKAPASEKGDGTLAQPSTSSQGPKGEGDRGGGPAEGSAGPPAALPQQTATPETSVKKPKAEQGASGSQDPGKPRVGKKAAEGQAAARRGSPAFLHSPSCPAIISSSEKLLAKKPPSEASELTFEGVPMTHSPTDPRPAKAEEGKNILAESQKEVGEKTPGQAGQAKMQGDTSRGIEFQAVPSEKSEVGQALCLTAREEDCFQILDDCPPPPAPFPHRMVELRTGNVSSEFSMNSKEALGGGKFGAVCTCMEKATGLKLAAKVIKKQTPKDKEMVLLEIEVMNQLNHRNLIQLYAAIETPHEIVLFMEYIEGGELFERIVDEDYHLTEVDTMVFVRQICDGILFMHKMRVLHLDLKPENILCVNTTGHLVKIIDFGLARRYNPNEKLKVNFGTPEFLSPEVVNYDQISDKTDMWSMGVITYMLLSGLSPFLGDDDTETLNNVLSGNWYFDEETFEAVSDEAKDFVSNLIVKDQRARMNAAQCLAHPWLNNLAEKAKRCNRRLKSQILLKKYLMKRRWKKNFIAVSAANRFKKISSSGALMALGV

| SMILES | residual activity [%] |
| --- | --- |
| CCN1/C(=C/C(C)=O)Sc2ccc(OC)cc21 | 95.1 |
| COc1ccc(-c2cnc3c(-c4ccsc4)cnn3c2)cc1 | 75.6 |
| O=C1Nc2cc(Br)ccc2/C1=C1/Nc2ccccc2/C1=N\O | 17.6 |
| CS(=O)c1ccc(-c2nc(-c3ccc(F)cc3)c(-c3ccncc3)[nH]2)cc1 (stereo unspecified) | 99.9 |

These compounds were tested against TYK2 JH1 catalytic (human) (UniProt P29597) in the same assay as above. Conditions: compound 0.5 µM; ATP 10 µM.

| SMILES | residual activity [%] |
| --- | --- |
| CCN1/C(=C/C(C)=O)Sc2ccc(OC)cc21 | 113 |
| COc1ccc(-c2cnc3c(-c4ccsc4)cnn3c2)cc1 | 86.1 |
| O=C1Nc2cc(Br)ccc2/C1=C1/Nc2ccccc2/C1=N\O | 25.6 |
| CS(=O)c1ccc(-c2nc(-c3ccc(F)cc3)c(-c3ccncc3)[nH]2)cc1 (stereo unspecified) | 102 |

Each compound was assayed against RPS6KB1 (human) (UniProt P23443) in the same assay as above. Conditions: compound 0.5 µM; ATP 10 µM.
RPS6KB1 (human), sequence (P23443 whole entry, looked up): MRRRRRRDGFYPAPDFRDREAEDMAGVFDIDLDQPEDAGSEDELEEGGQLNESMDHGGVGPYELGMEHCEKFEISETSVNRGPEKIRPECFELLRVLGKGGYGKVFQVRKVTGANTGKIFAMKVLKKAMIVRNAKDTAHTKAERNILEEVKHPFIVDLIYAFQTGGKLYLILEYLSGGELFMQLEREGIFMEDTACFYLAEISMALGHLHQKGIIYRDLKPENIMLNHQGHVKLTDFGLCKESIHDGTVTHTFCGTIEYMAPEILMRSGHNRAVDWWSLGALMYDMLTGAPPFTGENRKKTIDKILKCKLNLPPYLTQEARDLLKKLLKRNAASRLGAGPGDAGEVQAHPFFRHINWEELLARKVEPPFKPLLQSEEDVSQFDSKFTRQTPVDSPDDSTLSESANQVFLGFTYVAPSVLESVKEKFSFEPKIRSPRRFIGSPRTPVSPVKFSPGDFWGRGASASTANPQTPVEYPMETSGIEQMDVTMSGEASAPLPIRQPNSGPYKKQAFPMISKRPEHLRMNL

| SMILES | residual activity [%] |
| --- | --- |
| CCN1/C(=C/C(C)=O)Sc2ccc(OC)cc21 | 95 |
| COc1ccc(-c2cnc3c(-c4ccsc4)cnn3c2)cc1 | 92.1 |
| C#Cc1cccc(Nc2ncnc3cc(OCCOC)c(OCCOC)cc23)c1 | 95.1 |
| O=C1Nc2cc(Br)ccc2/C1=C1/Nc2ccccc2/C1=N\O | 79.6 |
| CS(=O)c1ccc(-c2nc(-c3ccc(F)cc3)c(-c3ccncc3)[nH]2)cc1 (stereo unspecified) | 97.4 |

Each compound was assayed against CDK4 CCND3 (human) (UniProt P30281+P11802) in the same assay as above. Conditions: compound 0.5 µM; ATP 10 µM.

| SMILES | residual activity [%] |
| --- | --- |
| CCN1/C(=C/C(C)=O)Sc2ccc(OC)cc21 | 97.4 |
| COc1ccc(-c2cnc3c(-c4ccsc4)cnn3c2)cc1 | 82.9 |
| C#Cc1cccc(Nc2ncnc3cc(OCCOC)c(OCCOC)cc23)c1 | 103 |
| O=C1Nc2cc(Br)ccc2/C1=C1/Nc2ccccc2/C1=N\O | 75.9 |
| CS(=O)c1ccc(-c2nc(-c3ccc(F)cc3)c(-c3ccncc3)[nH]2)cc1 (stereo unspecified) | 105 |

Each compound was assayed against DSTYK (human) (UniProt Q6XUX3) in the same assay as above. Conditions: compound 0.5 µM; ATP 10 µM.

| SMILES | residual activity [%] |
| --- | --- |
| CCN1/C(=C/C(C)=O)Sc2ccc(OC)cc21 | 90.6 |
| COc1ccc(-c2cnc3c(-c4ccsc4)cnn3c2)cc1 | 97.6 |
| C#Cc1cccc(Nc2ncnc3cc(OCCOC)c(OCCOC)cc23)c1 | 107 |
| O=C1Nc2cc(Br)ccc2/C1=C1/Nc2ccccc2/C1=N\O | 102 |
| CS(=O)c1ccc(-c2nc(-c3ccc(F)cc3)c(-c3ccncc3)[nH]2)cc1 (stereo unspecified) | 100 |

These compounds were tested against DAPK2 (human) (UniProt Q9UIK4) in the same assay as above. Conditions: compound 0.5 µM; ATP 10 µM.
DAPK2 (human), sequence (Q9UIK4 whole entry, looked up): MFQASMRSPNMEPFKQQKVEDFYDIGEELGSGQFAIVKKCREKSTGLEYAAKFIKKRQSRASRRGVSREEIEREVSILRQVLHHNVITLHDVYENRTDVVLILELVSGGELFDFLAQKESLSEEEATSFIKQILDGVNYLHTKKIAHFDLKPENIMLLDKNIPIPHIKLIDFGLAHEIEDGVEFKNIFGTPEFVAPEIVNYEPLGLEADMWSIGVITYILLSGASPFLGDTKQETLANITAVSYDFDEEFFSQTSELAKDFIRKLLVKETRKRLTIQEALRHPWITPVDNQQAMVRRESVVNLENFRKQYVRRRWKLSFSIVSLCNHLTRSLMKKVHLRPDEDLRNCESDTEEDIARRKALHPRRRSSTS

| SMILES | residual activity [%] |
| --- | --- |
| CCN1/C(=C/C(C)=O)Sc2ccc(OC)cc21 | 90.3 |
| COc1ccc(-c2cnc3c(-c4ccsc4)cnn3c2)cc1 | 87.4 |
| C#Cc1cccc(Nc2ncnc3cc(OCCOC)c(OCCOC)cc23)c1 | 92.5 |
| O=C1Nc2cc(Br)ccc2/C1=C1/Nc2ccccc2/C1=N\O | 91 |
| CS(=O)c1ccc(-c2nc(-c3ccc(F)cc3)c(-c3ccncc3)[nH]2)cc1 (stereo unspecified) | 102 |

The compounds below were run against MAP4K4 (human) (UniProt O95819) in the same assay as above. Conditions: compound 0.5 µM; ATP 10 µM.

| SMILES | residual activity [%] |
| --- | --- |
| CCN1/C(=C/C(C)=O)Sc2ccc(OC)cc21 | 83.2 |
| COc1ccc(-c2cnc3c(-c4ccsc4)cnn3c2)cc1 | 28.4 |

Each compound was assayed against ULK2 (human) (UniProt Q8IYT8) in the same assay as above. Conditions: compound 0.5 µM; ATP 10 µM.

| SMILES | residual activity [%] |
| --- | --- |
| COc1ccc(-c2cnc3c(-c4ccsc4)cnn3c2)cc1 | 103 |
| C#Cc1cccc(Nc2ncnc3cc(OCCOC)c(OCCOC)cc23)c1 | 98.7 |
| O=C1Nc2cc(Br)ccc2/C1=C1/Nc2ccccc2/C1=N\O | 94 |
| CS(=O)c1ccc(-c2nc(-c3ccc(F)cc3)c(-c3ccncc3)[nH]2)cc1 (stereo unspecified) | 83.5 |

What follows are compounds tested against CSNK1D (human) (UniProt P48730) in the same assay as above. Conditions: compound 0.5 µM; ATP 10 µM.
CSNK1D (human), sequence (P48730 whole entry, looked up): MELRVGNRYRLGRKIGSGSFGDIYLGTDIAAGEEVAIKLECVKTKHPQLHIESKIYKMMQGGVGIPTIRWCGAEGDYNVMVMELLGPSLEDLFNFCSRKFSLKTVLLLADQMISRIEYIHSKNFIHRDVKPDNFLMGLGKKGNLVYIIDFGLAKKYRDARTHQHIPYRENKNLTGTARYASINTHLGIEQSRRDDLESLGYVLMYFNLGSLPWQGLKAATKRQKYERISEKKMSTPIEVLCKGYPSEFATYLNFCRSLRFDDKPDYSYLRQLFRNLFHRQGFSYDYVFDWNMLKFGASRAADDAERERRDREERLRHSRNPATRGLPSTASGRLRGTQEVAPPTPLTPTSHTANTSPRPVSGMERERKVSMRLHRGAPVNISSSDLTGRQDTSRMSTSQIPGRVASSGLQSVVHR

| SMILES | residual activity [%] |
| --- | --- |
| CCN1/C(=C/C(C)=O)Sc2ccc(OC)cc21 | 54.2 |
| COc1ccc(-c2cnc3c(-c4ccsc4)cnn3c2)cc1 | 83.6 |
| O=C1Nc2cc(Br)ccc2/C1=C1/Nc2ccccc2/C1=N\O | 85.4 |
| CS(=O)c1ccc(-c2nc(-c3ccc(F)cc3)c(-c3ccncc3)[nH]2)cc1 (stereo unspecified) | 13.9 |

These compounds were tested against EPHA5 (human) (UniProt P54756) in the same assay as above. Conditions: compound 0.5 µM; ATP 10 µM.

| SMILES | residual activity [%] |
| --- | --- |
| CCN1/C(=C/C(C)=O)Sc2ccc(OC)cc21 | 97.8 |
| COc1ccc(-c2cnc3c(-c4ccsc4)cnn3c2)cc1 | 89.1 |
| C#Cc1cccc(Nc2ncnc3cc(OCCOC)c(OCCOC)cc23)c1 | 99.1 |
| O=C1Nc2cc(Br)ccc2/C1=C1/Nc2ccccc2/C1=N\O | 70.4 |
| CS(=O)c1ccc(-c2nc(-c3ccc(F)cc3)c(-c3ccncc3)[nH]2)cc1 (stereo unspecified) | 89.5 |

What follows are compounds tested against NEK4 (human) (UniProt P51957) in the same assay as above. Conditions: compound 0.5 µM; ATP 10 µM.

| SMILES | residual activity [%] |
| --- | --- |
| CCN1/C(=C/C(C)=O)Sc2ccc(OC)cc21 | 92.8 |
| COc1ccc(-c2cnc3c(-c4ccsc4)cnn3c2)cc1 | 80 |
| O=C1Nc2cc(Br)ccc2/C1=C1/Nc2ccccc2/C1=N\O | 96.7 |
| CS(=O)c1ccc(-c2nc(-c3ccc(F)cc3)c(-c3ccncc3)[nH]2)cc1 (stereo unspecified) | 98.2 |

The compounds below were run against CDK2 CCNE1 (human) (UniProt P24941+P24864) in the same assay as above. Conditions: compound 0.5 µM; ATP 10 µM.

| SMILES | residual activity [%] |
| --- | --- |
| CCN1/C(=C/C(C)=O)Sc2ccc(OC)cc21 | 87.7 |
| COc1ccc(-c2cnc3c(-c4ccsc4)cnn3c2)cc1 | 82.8 |
| C#Cc1cccc(Nc2ncnc3cc(OCCOC)c(OCCOC)cc23)c1 | 96.5 |
| O=C1Nc2cc(Br)ccc2/C1=C1/Nc2ccccc2/C1=N\O | 15.4 |
| CS(=O)c1ccc(-c2nc(-c3ccc(F)cc3)c(-c3ccncc3)[nH]2)cc1 (stereo unspecified) | 93.1 |

Each compound was assayed against CDC42BPA (human) (UniProt Q5VT25) in the same assay as above. Conditions: compound 0.5 µM; ATP 10 µM.

| SMILES | residual activity [%] |
| --- | --- |
| CCN1/C(=C/C(C)=O)Sc2ccc(OC)cc21 | 85 |
| COc1ccc(-c2cnc3c(-c4ccsc4)cnn3c2)cc1 | 86.8 |
| C#Cc1cccc(Nc2ncnc3cc(OCCOC)c(OCCOC)cc23)c1 | 88.5 |
| O=C1Nc2cc(Br)ccc2/C1=C1/Nc2ccccc2/C1=N\O | 94 |
| CS(=O)c1ccc(-c2nc(-c3ccc(F)cc3)c(-c3ccncc3)[nH]2)cc1 (stereo unspecified) | 94.3 |

What follows are compounds tested against NEK3 (human) (UniProt P51956) in the same assay as above. Conditions: compound 0.5 µM; ATP 10 µM.

| SMILES | residual activity [%] |
| --- | --- |
| CCN1/C(=C/C(C)=O)Sc2ccc(OC)cc21 | 82.5 |
| COc1ccc(-c2cnc3c(-c4ccsc4)cnn3c2)cc1 | 87.7 |
| C#Cc1cccc(Nc2ncnc3cc(OCCOC)c(OCCOC)cc23)c1 | 95.6 |
| O=C1Nc2cc(Br)ccc2/C1=C1/Nc2ccccc2/C1=N\O | 84.4 |
| CS(=O)c1ccc(-c2nc(-c3ccc(F)cc3)c(-c3ccncc3)[nH]2)cc1 (stereo unspecified) | 92.2 |

These compounds were tested against ABL2 (human) (UniProt P42684) in the same assay as above. Conditions: compound 0.5 µM; ATP 10 µM.

| SMILES | residual activity [%] |
| --- | --- |
| CCN1/C(=C/C(C)=O)Sc2ccc(OC)cc21 | 96.1 |
| COc1ccc(-c2cnc3c(-c4ccsc4)cnn3c2)cc1 | 63.4 |
